Molecules are shown by their SMILES. Where two headings read alike, the source gives them in different places.

For series [1] the following is noted: background, prior art, cited from earlier work.
For series [2] the following is noted: bulk solution maintained at 5° C. to 15° C., such as 12° C.±3° C., for an extended period of time.

In the case of `O=P1(N(CCCl)CCCl)NCCCO1` (stereo not drawn) [anhydrous form, cyclophosphamide anhydrous], in series [1], the stability as reported result is reported as “highly unstable”.

For the compound `O=P1(N(CCCl)CCCl)NCCCO1` (stereo not drawn) [cyclophosphamide, 2-[bis(2-chloroethyl)amino]tetrahydro-2H-1,3,2-oxazaphosphorine 2-oxide], the “degradation in bulk solution” value in series [2] is “significant degradation”.

For the compound `O=P1(N(CCCl)CCCl)NCCCO1` (stereo not drawn) [monohydrate drug form, cyclophosphamide monohydrate], the stability as reported entry in series [1] (monohydrate) is recorded as “stable”.

Source of the values: US10307431B2, “Lyophilized cyclophosphamide composition and methods of preparation thereof” (priority 2017, dated 2019).
